The data set is described as follows: gradient 5% acetonitrile 3 min, to 50% in 2 min, to 85% in 15 min, held 3 min, 100 µL/min. Particulars: column: Zorbax Extend-C18 2.1 x 50 mm; eluents: water / acetonitrile, 0.1% formic acid. An outline of the steps:
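In both positive and negative ionization mode, a quadrupole time-of-flight mass spectrometer coupled to HPLC analyzed pure standards run in mixtures of ~100 molecules. The Zorbax Extend-C18 column (2.1 × 50 mm, 1.8 μm) was operated at 100 μL/min with water and acetonitrile, each containing 0.1% formic acid. The dead volume was 40 μL and the dwell volume 900 μL. Retention time came from adduct peaks that were computationally picked and individually inspected by hand.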
For the compound `COc1ccc(S(=O)(=O)N2CCCC(C(=O)Nc3cc(Cl)ccc3OC)C2)cc1Cl` (stereo not drawn), the RP-LC retention time amounted to 1110 s.
The compound `OC[C@H]1O[C@@H](n2cnc3c(N[C@H]4CCC[C@@H]4O)ncnc32)[C@@H](O)C1O` (stereo partly drawn) returned an RP-LC retention time of 590 s.
In the case of `COc1ccc(CCc2nc3nccc(-c4cccs4)n3n2)cc1`, the RP-LC retention time stood at 932 s.
Next, `CN1CCCC1c1nc(C2CN(C(=O)c3ccn[nH]3)C2)no1` (stereo not drawn): 506 s.
Next, `COc1cc2c(cc1OC)C1C(C(=O)NCCCN3CCCCCC3)c3ccccc3C(=O)N1CC2` (stereo not drawn): 617 s; `CCc1nncn1C1CCN(S(=O)(=O)c2ccc(C)cc2C)CC1`: 738 s.
`Cc1nn(-c2cc(N3CCCCC3)ncn2)c(C)c1CCC(=O)N1CCN(c2ccccn2)CC1` returned an RP-LC retention time of 639 s.
To `Cc1ccc(CNC(=O)c2ccc(-c3cncnc3)nc2)cc1C` belongs 782 s; to `NC(=O)C1CCN(C(=O)c2ccc(CN3C(=O)CCn4nc(-c5cccc(Cl)c5)cc43)cc2)CC1`, 700 s.
In turn, `CCOc1ccccc1NC(=O)Cn1nc(N2CCSCC2)c2ccccc2c1=O` registered an RP-LC retention time of 929 s.
`CCc1noc(-c2ccc(-n3ncc(C(=O)NC4CCCCC4)c3C)nc2)n1` returned an RP-LC retention time of 1020 s.
Next, `Cc1ccsc1CN1CCC(n2c(C)cnc2-c2ccncc2)C1` (stereo not drawn): 506 s.
To `CCn1c(SC)nnc1-c1nn(C)c2c1CN(C(=O)c1c(F)cccc1F)CC2` belongs 765 s; to `O=[N+]([O-])c1ccc(-c2nc(N3CCOCC3)c3ccccc3n2)cc1`, 833 s.
In turn, `COc1ccc(Cc2nc3nccc(-c4ccc(F)cc4)n3n2)cc1` gave an RP-LC retention time of 882 s.
To `COc1ccc(-c2noc(-c3nnn4c3COC(c3ccc(C)cc3C)C4)n2)cc1F` (stereo not drawn) belongs 1260 s; to `CCOc1ccc(CC(=O)NC2(c3nc(CC)no3)CCCCC2)cc1`, 940 s.
To `CCOc1ccc(NC(=O)Cn2ccc3ccc(-c4nnc(CC)o4)cc32)cc1` belongs 851 s.
To `Cc1ccc(NC(=O)C2CCN(S(=O)(=O)c3cc(C(=O)N4CCCC4)n(C)c3)CC2)cc1C` belongs 836 s.
Consider `COc1cc(-n2cnc3cc(C(=O)NCC4CCCO4)ccc32)cc(OC)c1OC` (stereo not drawn), for which the RP-LC retention time was 660 s.
For `CC1CCN(Cc2csc(N3CCN(C(=O)c4ccc5c(c4)OCO5)CC3)n2)CC1`, the RP-LC retention time was 632 s.
To `CCS(=O)(=O)N1CCCc2cc(C(=O)NC3CCCCCC3)ccc21` belongs 956 s; to `O=C(Cn1nc(N2CCSCC2)c2ccccc2c1=O)Nc1ccccc1`, 890 s; to `O=C1CCCN1CCCN1C(=O)[C@H]2CN(Cc3cccc(F)c3F)C[C@H]2C1=O`, 625 s.
`Cc1ccc(-c2nc3ccc(Cl)cn3c2Nc2ccc3c(c2)OCO3)cc1`: the RP-LC retention time amounted to 708 s.
As for `O=C(Nc1onc2c1CSC2)c1cccc(-n2cnnn2)c1`, the RP-LC retention time was found to be 647 s.
Next, `Cc1ccc(S(=O)(=O)N2CCCC2c2nc(-c3ccc(F)cc3)no2)cc1Cl` (stereo not drawn): 1230 s.
To `COC(=O)c1cc2c(=O)n(CCc3cccs3)ccc2nc1C` belongs 838 s; to `Cc1cc(C)n(CCNC(=O)c2cnccn2)n1`, 566 s; to `O=C(Cn1nc2c(cc1=O)CCCC2)Nc1nc(-c2ccccn2)cs1`, 609 s.
Next, `Cc1ccc2nc(-c3ccc(Cl)cc3)c(Nc3ccc4c(c3)OCO4)n2c1`: 756 s; `Cc1ccc(-c2ncc(NC(=O)C3CCC3)cn2)cc1`: 941 s.
Take `Cc1c(C(=O)O)nnn1-c1ccc2c(c1)CCC2`: the RP-LC retention time amounted to 759 s.

The values are drawn from the METLIN SMRT retention time set (Domingo-Almenara et al. 2019).
